Measured values reported in US20230117034A1, “PYRAZOLOTRIAZINES” (Bayer Aktiengesellschaft, priority 2019, published 2023).

Columns and labels:
[1] = target: T1, CDK12 (nuclear staining in CAL-120 cells) (Homo sapiens, UniProt Q9NYV4); assay: CDK12 nuclear protein level: immunofluorescence/high content analysis (CAL-120); assay type: cell-based; details: for DC50: CAL-120 cells, 24 h, immunofluorescence, 50% reduction of nuclear CDK12 staining intensity, median, read-out: CDK12 degradation IF, DC50- [mol/l] (median); for (IC50 CDK12 high ATP) to (Degradation DC50 CDK12) ratio: ratio of IC50 CDK12 high ATP kinase assay to DC50 CDK12 degradation (IF, CAL-120)
T1 construct: endogenous in cells; host or cells: CAL-120 human breast cancer cells (DSMZ ACC 459)
T1 sequence (Q9NYV4 whole entry): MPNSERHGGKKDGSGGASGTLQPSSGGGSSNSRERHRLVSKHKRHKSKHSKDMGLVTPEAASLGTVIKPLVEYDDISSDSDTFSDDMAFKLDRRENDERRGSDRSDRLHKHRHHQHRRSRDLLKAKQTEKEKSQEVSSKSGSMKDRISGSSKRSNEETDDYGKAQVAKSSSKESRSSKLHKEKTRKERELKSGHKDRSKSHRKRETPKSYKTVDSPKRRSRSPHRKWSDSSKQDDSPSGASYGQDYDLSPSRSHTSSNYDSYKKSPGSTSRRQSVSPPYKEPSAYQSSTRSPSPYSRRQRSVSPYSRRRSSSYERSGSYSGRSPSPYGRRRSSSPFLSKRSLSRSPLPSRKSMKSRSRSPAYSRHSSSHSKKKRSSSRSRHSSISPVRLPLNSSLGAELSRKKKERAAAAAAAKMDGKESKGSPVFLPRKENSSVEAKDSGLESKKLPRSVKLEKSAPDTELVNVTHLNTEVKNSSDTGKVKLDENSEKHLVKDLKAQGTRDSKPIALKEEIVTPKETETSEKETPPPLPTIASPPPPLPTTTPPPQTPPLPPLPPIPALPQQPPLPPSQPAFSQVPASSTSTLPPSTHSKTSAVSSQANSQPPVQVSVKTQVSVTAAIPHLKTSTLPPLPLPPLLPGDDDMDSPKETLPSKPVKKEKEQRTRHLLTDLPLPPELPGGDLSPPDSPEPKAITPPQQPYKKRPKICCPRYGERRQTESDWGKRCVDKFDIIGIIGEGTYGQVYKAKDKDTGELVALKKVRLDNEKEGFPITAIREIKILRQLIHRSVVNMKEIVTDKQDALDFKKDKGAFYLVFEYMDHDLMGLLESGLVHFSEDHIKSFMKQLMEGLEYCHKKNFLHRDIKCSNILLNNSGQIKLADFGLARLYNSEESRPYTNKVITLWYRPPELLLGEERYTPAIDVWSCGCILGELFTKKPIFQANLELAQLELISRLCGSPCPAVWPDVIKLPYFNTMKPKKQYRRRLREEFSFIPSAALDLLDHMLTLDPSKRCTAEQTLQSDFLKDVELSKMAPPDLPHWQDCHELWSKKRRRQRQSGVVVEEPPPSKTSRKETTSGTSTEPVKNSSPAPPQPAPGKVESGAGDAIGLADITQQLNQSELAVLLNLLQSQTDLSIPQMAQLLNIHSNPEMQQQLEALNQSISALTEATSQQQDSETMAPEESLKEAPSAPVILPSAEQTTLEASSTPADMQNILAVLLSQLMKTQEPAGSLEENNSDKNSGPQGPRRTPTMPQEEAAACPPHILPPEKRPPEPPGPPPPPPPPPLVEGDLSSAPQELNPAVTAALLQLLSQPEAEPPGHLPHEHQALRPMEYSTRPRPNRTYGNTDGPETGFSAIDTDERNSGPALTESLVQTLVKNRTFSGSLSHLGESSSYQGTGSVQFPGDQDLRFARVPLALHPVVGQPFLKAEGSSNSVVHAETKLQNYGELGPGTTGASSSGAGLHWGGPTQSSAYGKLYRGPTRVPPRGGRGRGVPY
T1 sequence (O75909 whole entry partner): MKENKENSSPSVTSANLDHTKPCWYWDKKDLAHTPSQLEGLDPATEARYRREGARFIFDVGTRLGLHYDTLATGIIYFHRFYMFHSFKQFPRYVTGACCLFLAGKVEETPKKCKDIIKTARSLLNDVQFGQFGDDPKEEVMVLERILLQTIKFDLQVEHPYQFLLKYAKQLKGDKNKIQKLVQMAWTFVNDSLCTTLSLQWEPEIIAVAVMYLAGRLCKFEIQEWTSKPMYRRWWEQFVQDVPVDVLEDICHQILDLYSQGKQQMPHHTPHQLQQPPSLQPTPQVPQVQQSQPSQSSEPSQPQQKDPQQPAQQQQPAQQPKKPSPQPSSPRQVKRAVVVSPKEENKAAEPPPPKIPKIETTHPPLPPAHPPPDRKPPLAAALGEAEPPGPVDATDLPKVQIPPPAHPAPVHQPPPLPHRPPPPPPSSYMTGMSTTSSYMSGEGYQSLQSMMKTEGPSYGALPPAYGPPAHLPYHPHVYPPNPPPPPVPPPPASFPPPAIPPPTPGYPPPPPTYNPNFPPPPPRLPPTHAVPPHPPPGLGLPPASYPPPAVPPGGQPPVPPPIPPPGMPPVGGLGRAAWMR
Summary of the method: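 CAL-120 cells were treated with compound for 24 h at 37 °C, fixed with PFA and immunostained for CDK12. Nuclear CDK12 intensity was quantified by automated image analysis and normalized to DMSO and control. DC50 is the concentration giving 50% reduction of nuclear staining.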

[2] = test system: BRCA1 mRNA expression in MDA-MB-231 cells; assay: qRT-PCR assay: BRCA1 mRNA expression in MDA-MB-231; assay type: cell-based, human; details: Homo sapiens, MDA-MB-231, Inhibition of BRCA1 mRNA expression in MDA-MB-231 cells; median; read-out: RTqPCR-MDA-MB-231, IC50, BRCA1 (median)
Summary of the method: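 GAPDH-normalised RT-qPCR measures the transcript after 24 h continuous compound treatment of cells seeded at 200,000/well one day earlier.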

[3] = target: CDK12/CycK (Homo sapiens, UniProt Q9NYV4); assay: CDK12/CycK high ATP kinase assay (TR-FRET, 2 mM ATP); assay type: biochemical; details: 2 mM ATP (high ATP); median; read-out: CDK12/CyclinK, 2 mM ATP (high ATP), IC50-[mol/l] (median)
CDK12/CycK, sequence (Q9NYV4 with tags, fused parts or gaps): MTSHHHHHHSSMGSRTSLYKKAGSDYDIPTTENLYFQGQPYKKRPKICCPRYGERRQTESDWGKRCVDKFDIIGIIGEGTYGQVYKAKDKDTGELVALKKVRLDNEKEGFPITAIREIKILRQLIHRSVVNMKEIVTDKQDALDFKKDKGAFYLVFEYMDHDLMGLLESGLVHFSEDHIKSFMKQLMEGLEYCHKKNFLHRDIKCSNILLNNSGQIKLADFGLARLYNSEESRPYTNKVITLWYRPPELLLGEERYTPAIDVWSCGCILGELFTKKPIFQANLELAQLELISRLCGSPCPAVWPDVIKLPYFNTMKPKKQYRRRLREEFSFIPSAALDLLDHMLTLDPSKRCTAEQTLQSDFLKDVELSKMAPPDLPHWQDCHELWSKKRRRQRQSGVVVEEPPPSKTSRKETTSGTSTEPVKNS
CDK12/CycK, sequence (O75909 1-300 partner limits assumed): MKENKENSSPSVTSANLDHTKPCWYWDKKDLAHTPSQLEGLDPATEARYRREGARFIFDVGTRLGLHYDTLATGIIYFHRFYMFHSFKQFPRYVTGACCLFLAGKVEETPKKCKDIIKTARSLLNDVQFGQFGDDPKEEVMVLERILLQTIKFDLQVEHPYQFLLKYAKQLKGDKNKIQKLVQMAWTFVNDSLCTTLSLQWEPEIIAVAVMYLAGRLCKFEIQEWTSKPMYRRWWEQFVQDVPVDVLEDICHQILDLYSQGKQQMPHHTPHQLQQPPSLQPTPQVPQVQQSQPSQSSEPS
Summary of the method: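 His-tagged human CDK12/CycK (~0.75 nM) pre-incubated 15 min with compound, then 60 min at 22 °C with 2 mM ATP and 1 µM biotinylated peptide (HEPES pH 7.5, 20 mM MgCl2). EDTA stop; phospho-Ser62 antibody/Eu anti-rabbit and streptavidin-XL665 TR-FRET, 665/620 nm ratio normalised to give IC50.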

Row | Compound | DC50 [1] [nM] | (IC50 CDK12 high ATP) to (Degradation DC50 CDK12) ratio [1] | IC50 [2] [nM] | IC50 [3] [nM]
1 | Brc1cnn2c(NCc3nc4ccncc4[nH]3)nc(N3CCOCC3)nc12 [Example 22, 8-bromo-N-[(3H-imidazo[4,5-c]pyridin-2-yl)methyl]-2-(morpholin-4-yl)pyrazolo[1,5-a][1,3,5]triazin-4-amine] | 99 | 40 | 131 | 4000
2 | Brc1cnn2c(NCc3ncc(-c4ccccc4)[nH]3)nc(N3CCOCC3)nc12 [Example 23, 8-bromo-2-(morpholin-4-yl)-N-[(5-phenyl-1H-imidazol-2-yl)methyl]pyrazolo[1,5-a][1,3,5]triazin-4-amine] | 3.45 | 452 | 3.83 | 1560
3 | Brc1cnn2c(NCc3nnc(-c4ccccc4)[nH]3)nc(N3CCOCC3)nc12 [Example 24, 8-bromo-2-(morpholin-4-yl)-N-[(5-phenyl-4H-1,2,4-triazol-3-yl)methyl]pyrazolo[1,5-a][1,3,5]triazin-4-amine] | 7.78 | 564 | 10 | 4390
4 | Fc1ccc2[nH]c(CNc3nc(N4CCOCC4)nc4c(Br)cnn34)nc2c1F [Example 25, 8-bromo-N-[(4,5-difluoro-1H-benzimidazol-2-yl)methyl]-2-(morpholin-4-yl)pyrazolo[1,5-a][1,3,5]triazin-4-amine] | 0.674 | 1084 | 3.01 | 731
5 | N[C@H]1CCN(c2nc(NCc3nc4ccccc4[nH]3)n3ncc(Br)c3n2)C1 [Example 245, 2-[(3S)-3-aminopyrrolidin-1-yl]-N-[(1H-benzimidazol-2-yl)methyl]-8-bromopyrazolo[1,5-a][1,3,5]triazin-4-amine] | 1.49 | >10636 | 7.35 | > 15800
6 | CN1CCN(c2nc(NCc3nc4ccccc4[nH]3)n3ncc(C4CC4)c3n2)CC1 [Example 246, N-[(1H-benzimidazol-2-yl)methyl]-8-cyclopropyl-2-(4-methylpiperazin-1-yl)pyrazolo[1,5-a][1,3,5]triazin-4-amine] | 3 | >4287 | 10.3 | > 12900
7 | c1ccc2[nH]c(CNc3nc(N4CCNCC4)nc4c(C5CC5)cnn34)nc2c1 [Example 247, N-[(1H-benzimidazol-2-yl)methyl]-8-cyclopropyl-2-(piperazin-1-yl)pyrazolo[1,5-a][1,3,5]triazin-4-amine] | 1.38 | 10678 | 5.55 | 14700
8 | C[C@@H]1CN(c2nc(NCc3nc4ccccc4[nH]3)n3ncc(C4CC4)c3n2)C[C@H](C)N1 [Example 248, N-[(1H-benzimidazol-2-yl)methyl]-8-cyclopropyl-2-[(3R,5S)-3,5-dimethylpiperazin-1-yl]pyrazolo[1,5-a][1,3,5]triazin-4-amine] | 0.946 | 9730 | 1.6 | 9200
9 | c1ccc2[nH]c(CNc3nc(N4C[C@@H]5CCCN[C@@H]5C4)nc4c(C5CC5)cnn34)nc2c1 [Example 249, N-[(1H-benzimidazol-2-yl)methyl]-8-cyclopropyl-2-[(4aS,7aS)-octahydro-6H-pyrrolo[3,4-b]pyridin-6-yl]pyrazolo[1,5-a][1,3,5]triazin-4-amine] | 6.48 | >2626 | 5.69 | > 17000
10 | N[C@@H]1CCN(c2nc(NCc3nc4ccccc4[nH]3)n3ncc(Br)c3n2)C1 [Example 250, 2-[(3R)-3-aminopyrrolidin-1-yl]-N-[(1H-benzimidazol-2-yl)methyl]-8-bromopyrazolo[1,5-a][1,3,5]triazin-4-amine] | 3.16 | 3560 | 10.5 | 11300
11 | N[C@@H]1CN(c2nc(NCc3nc4ccccc4[nH]3)n3ncc(Br)c3n2)CC12CC2 [Example 251, 2-[(7S)-7-amino-5-azaspiro[2.4]heptan-5-yl]-N-[(1H-benzimidazol-2-yl)methyl]-8-bromopyrazolo[1,5-a][1,3,5]triazin-4-amine] | 0.145 | 6727 | 1.49 | 972
12 | CN[C@H]1CCN(c2nc(NCc3nc4ccccc4[nH]3)n3ncc(Br)c3n2)C1 [Example 252, N-[(1H-benzimidazol-2-yl)methyl]-8-bromo-2-[(3S)-3-(methylamino)pyrrolidin-1-yl]pyrazolo[1,5-a][1,3,5]triazin-4-amine] | 1.17 | >17030 | 10.2 | > 20000
13 | CN[C@@H]1CCN(c2nc(NCc3nc4ccccc4[nH]3)n3ncc(Br)c3n2)C1 [Example 253, N-[(1H-benzimidazol-2-yl)methyl]-8-bromo-2-[(3R)-3-(methylamino)pyrrolidin-1-yl]pyrazolo[1,5-a][1,3,5]triazin-4-amine] | 0.875 | >22856 | 20.8 | > 20000
14 | c1ccc2[nH]c(CNc3nc(N4C[C@@H]5C[C@H]4CO5)nc4c(C5CC5)cnn34)nc2c1 [Example 254, N-[(1H-benzimidazol-2-yl)methyl]-8-cyclopropyl-2-[(1S,4S)-2-oxa-5-azabicyclo[2.2.1]heptan-5-yl]pyrazolo[1,5-a][1,3,5]triazin-4-amine] | 8.47 | >2361 | 60.5 | > 20000
15 | NC1CCN(c2nc(NCc3nc4ccccc4[nH]3)n3ncc(Br)c3n2)CC1 [Example 256, 2-(4-aminopiperidin-1-yl)-N-[(1H-benzimidazol-2-yl)methyl]-8-bromopyrazolo[1,5-a][1,3,5]triazin-4-amine] | 3.53 | >5662 | 6.46 | > 20000

The next lines start with the values.

Row | DC50 [1] [nM] | (IC50 CDK12 high ATP) to (Degradation DC50 CDK12) ratio [1] | IC50 [2] [nM] | IC50 [3] [nM] | Compound
16 | 3 | 39 | 6.97 | 117 | COc1ccc2[nH]c(CNc3nc(N4CCOCC4)nc4c(C(F)(F)F)cnn34)nc2c1 [Example 257, N-[(5-methoxy-1H-benzimidazol-2-yl)methyl]-2-(morpholin-4-yl)-8-(trifluoromethyl)pyrazolo[1,5-a][1,3,5]triazin-4-amine]
17 | 3.79 | 1239 | 12.1 | 4690 | NC12CC1CN(c1nc(NCc3nc4ccccc4[nH]3)n3ncc(Br)c3n1)C2 (stereo not shown) [Example 258, 2-(1-amino-3-azabicyclo[3.1.0]hexan-3-yl)-N-(1H-benzimidazol-2-ylmethyl)-8-bromo-pyrazolo[1,5-a][1,3,5]triazin-4-amine]
18 | 7.16 | 362 | 11.4 | 2590 | N[C@H]1CN(c2nc(NCc3nc4ccccc4[nH]3)n3ncc(Br)c3n2)CC12CC2 [Example 259, 2-[(7R)-7-amino-5-azaspiro[2.4]heptan-5-yl]-N-[(1H-benzimidazol-2-yl)methyl]-8-bromopyrazolo[1,5-a][1,3,5]triazin-4-amine]
19 | 23.4 | 294 | 28.8 | 6890 | c1ccc2[nH]c(CNc3nc(N4CCOCC4)nc4c(C5CCC5)cnn34)nc2c1 [Example 263, N-[(1H-benzimidazol-2-yl)methyl]-8-cyclobutyl-2-(morpholin-4-yl)pyrazolo[1,5-a][1,3,5]triazin-4-amine]
20 | 3.55 | 627 | 6.32 | 2230 | Fc1ccc2[nH]c(CNc3nc(N4CCOCC4)nc4c(C5CCC5)cnn34)nc2c1F [Example 264, 8-cyclobutyl-N-[(4,5-difluoro-1H-benzimidazol-2-yl)methyl]-2-(morpholin-4-yl)pyrazolo[1,5-a][1,3,5]triazin-4-amine]
21 | 1.9 | 1120 | 3.23 | 2130 | Fc1ccc2[nH]c(CNc3nc(N4CCOCC4)nc4c(CC(F)(F)F)cnn34)nc2c1F [Example 268, N-[(4,5-difluoro-1H-benzimidazol-2-yl)methyl]-2-(morpholin-4-yl)-8-(2,2,2-trifluoroethyl)pyrazolo[1,5-a][1,3,5]triazin-4-amine]
22 | 3.33 | 2588 | 8.39 | 8610 | Brc1cnn2c(NCc3nc4ccccc4[nH]3)nc(N3C[C@H]4C[C@@H]3CN4)nc12 [Example 269, N-[(1H-benzimidazol-2-yl)methyl]-8-bromo-2-[(1R,4R)-2,5-diazabicyclo[2.2.1]heptan-2-yl]pyrazolo[1,5-a][1,3,5]triazin-4-amine]
